Laboratory results published in patent US20230242585A1, “IMMUNOMODULATORS” (Bristol-Myers Squibb Company, priority 2020, published 2023).
Starred links: 1 amine or outer side, 2 acyl side, 3 side chain; linkers in the order of their positions; H or OH if unused. Positions of bridges follow the written chain, without caps; N, C: chain ends. Non-standard residues stand in square brackets, D forms with d. Residues, ends and D or L forms follow the SMILES beside them. X30 = O=C([C@H](CCNC[C@H](O)[C@@H](O)[C@H](O[C@H]1O[C@H](CO)[C@@H](O)[C@H](O)[C@H]1O)[C@H](O)CO)N[*:1])[*:2]; X29 = O=C([C@H](CNC[C@H](O)[C@@H](O)[C@H](O[C@H]1O[C@H](CO)[C@@H](O)[C@H](O)[C@H]1O)[C@H](O)CO)N[*:1])[*:2]; X42 = O=C([C@H](CNC[C@@H](O)C(O)[C@H](O[C@@H]1OC(CO)[C@@H](O)C(O)C1O)C(O)CO)N[*:1])[*:2]; X48 = O=C([C@H](CCNCc1ccccc1O[C@@H]1O[C@H](CO)[C@@H](O)[C@H](O)[C@H]1O)N[*:1])[*:2]; X47 = O=C([C@H](CNCc1ccccc1O[C@@H]1O[C@H](CO)[C@@H](O)[C@H](O)[C@H]1O)N[*:1])[*:2]; X51 = O=C([C@H](CCNC[C@@H](O)[C@@H](O)[C@H](O)[C@H](O)C(O)CO)N[*:1])[*:2]; X50 = O=C([C@H](CNC[C@@H](O)[C@@H](O)[C@H](O)[C@H](O)C(O)CO)N[*:1])[*:2]; X35 = O=C([C@H](CNC[C@H](O)[C@H](O)[C@@H](O)[C@@H](O)CO)N[*:1])[*:2]; X68 = O=C([C@H](CCNC[C@@H](O)[C@H](O)[C@H](O)CO)N[*:1])[*:2]; X67 = O=C([C@H](CNC[C@@H](O)[C@H](O)[C@H](O)CO)N[*:1])[*:2]; X7 = O=C([C@H](CNC[C@H](O)[C@H](O)[C@H](O)CO)N[*:1])[*:2]; Trp(1-CH2COOH) = N[C@@H](Cc1cn(CC(=O)O)c2ccccc12)C(=O)O; X45 = CCn1c2ccccc2c2cc(CNC[C@H](N[*:1])C(=O)[*:2])ccc21; X10 = O=C([C@H](CNCc1c2ccccc2nc2ccccc12)N[*:1])[*:2]; X36 = COc1cc2cccc(OC)c2cc1CNC[C@H](N[*:1])C(=O)[*:2]; X18 = O=C([C@H](CNCc1cccc2nccnc12)N[*:1])[*:2]; Hyp = O=C(O)[C@@H]1C[C@@H](O)CN1; NMeNle = CCCC[C@H](NC)C(=O)O; NMeA = CN[C@@H](C)C(=O)O; Dab = NCC[C@H](N)C(=O)O

Molecular target: T1, PD-1/PD-L1 (Homo sapiens, UniProt Q9NZQ7)
T1 construct: TVMV protease site (linker) (C); made in house; host or cells: HEK293T cells
T1 sequence (Q9NZQ7 18-239): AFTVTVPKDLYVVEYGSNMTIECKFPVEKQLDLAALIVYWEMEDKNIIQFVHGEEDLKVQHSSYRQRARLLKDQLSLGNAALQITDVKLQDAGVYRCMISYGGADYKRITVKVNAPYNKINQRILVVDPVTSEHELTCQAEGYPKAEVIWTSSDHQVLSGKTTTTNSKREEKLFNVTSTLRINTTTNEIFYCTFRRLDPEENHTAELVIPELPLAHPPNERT
Assay: PD-1/PD-L1 Homogenous Time-Resolved Fluorescence (HTRF) binding assay
Details: PD-L1-His 10 nM, PD-1-Ig 20 nM
Method in brief: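 Compounds preincubated 15 min with PD-L1-His (residues 18-239, 10 nM) in dPBS with 0.1% BSA, 0.05% Tween-20, then PD-1-Ig (residues 25-167, 20 nM) for 15 min. Eu-cryptate anti-Ig (1 nM) and APC anti-His (20 nM) equilibrated 30 min; 665/620 nm ratio read, IC50 derived.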

Structure (SMILES) | IC50 [nM]
CCCC[C@H]1C(=O)N(C)[C@@H](CCCC)C(=O)N[C@@H](CC(C)C)C(=O)N[C@H](C(=O)NCC(N)=O)CSCC(=O)N[C@@H](Cc2ccc(O)cc2)C(=O)N(C)[C@@H](C)C(=O)N[C@@H](CC(N)=O)C(=O)N2CCC[C@H]2C(=O)N[C@@H](CNC[C@@H](O)[C@H](O)[C@H](O)CO)C(=O)N[C@@H](CC(C)C)C(=O)N2C[C@H](O)C[C@H]2C(=O)N[C@@H](Cc2c[nH]c3ccccc23)C(=O)N[C@@H](CCNC[C@@H](O)[C@H](O)[C@H](O)CO)C(=O)N[C@@H](Cc2cn(CC(=O)O)c3ccccc23)C(=O)N1C [Example 2012] ({CH2CO}-Y[NMeA]NP[X67]L[Hyp]W[X68][Trp(1-CH2COOH)][NMeNle][NMeNle]LCG-NH2; thioether N-14) | 0.7
CCCC[C@H]1C(=O)N(C)[C@@H](CCCC)C(=O)N[C@@H](CC(C)C)C(=O)N[C@H](C(=O)NCC(N)=O)CSCC(=O)N[C@@H](Cc2ccc(O)cc2)C(=O)N(C)[C@@H](C)C(=O)N[C@@H](CC(N)=O)C(=O)N2CCC[C@H]2C(=O)N[C@@H](CNC[C@@H](O)[C@@H](O)[C@H](O)[C@H](O)C(O)CO)C(=O)N[C@@H](CC(C)C)C(=O)N2C[C@H](O)C[C@H]2C(=O)N[C@@H](Cc2c[nH]c3ccccc23)C(=O)N[C@@H](CCNC[C@@H](O)[C@@H](O)[C@H](O)[C@H](O)C(O)CO)C(=O)N[C@@H](Cc2cn(CC(=O)O)c3ccccc23)C(=O)N1C (stereo partly drawn) [Example 2021] ({CH2CO}-Y[NMeA]NP[X50]L[Hyp]W[X51][Trp(1-CH2COOH)][NMeNle][NMeNle]LCG-NH2; thioether N-14) | 8.9
CCCC[C@H]1C(=O)N(C)[C@@H](CCCC)C(=O)N[C@@H](CC(C)C)C(=O)N[C@H](C(=O)NCC(N)=O)CSCC(=O)N[C@@H](Cc2ccc(O)cc2)C(=O)N(C)[C@@H](C)C(=O)N[C@@H](CC(N)=O)C(=O)N2CCC[C@H]2C(=O)N[C@@H](CNCc2c3ccccc3nc3ccccc23)C(=O)N[C@@H](CC(C)C)C(=O)N2C[C@H](O)C[C@H]2C(=O)N[C@@H](Cc2c[nH]c3ccccc23)C(=O)N[C@@H](CCN)C(=O)N[C@@H](Cc2cn(CC(=O)O)c3ccccc23)C(=O)N1C [Example 1013] ({CH2CO}-Y[NMeA]NP[X10]L[Hyp]W[Dab][Trp(1-CH2COOH)][NMeNle][NMeNle]LCG-NH2; thioether N-14) | 4.6
CCCC[C@H]1C(=O)N(C)[C@@H](CCCC)C(=O)N[C@@H](CC(C)C)C(=O)N[C@H](C(=O)NCC(N)=O)CSCC(=O)N[C@@H](Cc2ccc(O)cc2)C(=O)N(C)[C@@H](C)C(=O)N[C@@H](CC(N)=O)C(=O)N2CCC[C@H]2C(=O)N[C@@H](CNCc2ccccc2O[C@@H]2O[C@H](CO)[C@@H](O)[C@H](O)[C@H]2O)C(=O)N[C@@H](CC(C)C)C(=O)N2C[C@H](O)C[C@H]2C(=O)N[C@@H](Cc2c[nH]c3ccccc23)C(=O)N[C@@H](CCNCc2ccccc2O[C@@H]2O[C@H](CO)[C@@H](O)[C@H](O)[C@H]2O)C(=O)N[C@@H](Cc2cn(CC(=O)O)c3ccccc23)C(=O)N1C [Example 1006] ({CH2CO}-Y[NMeA]NP[X47]L[Hyp]W[X48][Trp(1-CH2COOH)][NMeNle][NMeNle]LCG-NH2; thioether N-14) | 32
CCCC[C@H]1C(=O)N(C)[C@@H](CCCC)C(=O)N[C@@H](CC(C)C)C(=O)N[C@H](C(=O)NCC(N)=O)CSCC(=O)N[C@@H](Cc2ccc(O)cc2)C(=O)N(C)[C@@H](C)C(=O)N[C@@H](CC(N)=O)C(=O)N2CCC[C@H]2C(=O)N[C@@H](CNC[C@H](O)[C@H](O)[C@H](O)CO)C(=O)N[C@@H](CC(C)C)C(=O)N2C[C@H](O)C[C@H]2C(=O)N[C@@H](Cc2c[nH]c3ccccc23)C(=O)N[C@@H](CCN)C(=O)N[C@@H](Cc2cn(CC(=O)O)c3ccccc23)C(=O)N1C [Example 2006] ({CH2CO}-Y[NMeA]NP[X7]L[Hyp]W[Dab][Trp(1-CH2COOH)][NMeNle][NMeNle]LCG-NH2; thioether N-14) | 12
CCCC[C@H]1C(=O)N(C)[C@@H](CCCC)C(=O)N[C@@H](CC(C)C)C(=O)N[C@H](C(=O)NCC(N)=O)CSCC(=O)N[C@@H](Cc2ccc(O)cc2)C(=O)N(C)[C@@H](C)C(=O)N[C@@H](CC(N)=O)C(=O)N2CCC[C@H]2C(=O)N[C@@H](CNC[C@H](O)[C@@H](O)[C@H](O[C@H]2O[C@H](CO)[C@@H](O)[C@H](O)[C@H]2O)[C@H](O)CO)C(=O)N[C@@H](CC(C)C)C(=O)N2C[C@H](O)C[C@H]2C(=O)N[C@@H](Cc2c[nH]c3ccccc23)C(=O)N[C@@H](CCNC[C@H](O)[C@@H](O)[C@H](O[C@H]2O[C@H](CO)[C@@H](O)[C@H](O)[C@H]2O)[C@H](O)CO)C(=O)N[C@@H](Cc2cn(CC(=O)O)c3ccccc23)C(=O)N1C [Example 2010] ({CH2CO}-Y[NMeA]NP[X29]L[Hyp]W[X30][Trp(1-CH2COOH)][NMeNle][NMeNle]LCG-NH2; thioether N-14) | 2.1
CCCC[C@H]1C(=O)N(C)[C@@H](CCCC)C(=O)N[C@@H](CC(C)C)C(=O)N[C@H](C(=O)NCC(N)=O)CSCC(=O)N[C@@H](Cc2ccc(O)cc2)C(=O)N(C)[C@@H](C)C(=O)N[C@@H](CC(N)=O)C(=O)N2CCC[C@H]2C(=O)N[C@@H](CNC[C@@H](O)C(O)[C@H](O[C@@H]2OC(CO)[C@@H](O)C(O)C2O)C(O)CO)C(=O)N[C@@H](CC(C)C)C(=O)N2C[C@H](O)C[C@H]2C(=O)N[C@@H](Cc2c[nH]c3ccccc23)C(=O)N[C@@H](CCN)C(=O)N[C@@H](Cc2cn(CC(=O)O)c3ccccc23)C(=O)N1C (stereo partly drawn) [Example 2039] ({CH2CO}-Y[NMeA]NP[X42]L[Hyp]W[Dab][Trp(1-CH2COOH)][NMeNle][NMeNle]LCG-NH2; thioether N-14) | 5.2
CCCC[C@H]1C(=O)N(C)[C@@H](CCCC)C(=O)N[C@@H](CC(C)C)C(=O)N[C@H](C(=O)NCC(N)=O)CSCC(=O)N[C@@H](Cc2ccc(O)cc2)C(=O)N(C)[C@@H](C)C(=O)N[C@@H](CC(N)=O)C(=O)N2CCC[C@H]2C(=O)N[C@@H](CNCc2ccccc2O[C@@H]2O[C@H](CO)[C@@H](O)[C@H](O)[C@H]2O)C(=O)N[C@@H](CC(C)C)C(=O)N2C[C@H](O)C[C@H]2C(=O)N[C@@H](Cc2c[nH]c3ccccc23)C(=O)N[C@@H](CCN)C(=O)N[C@@H](Cc2cn(CC(=O)O)c3ccccc23)C(=O)N1C [Example 1007] ({CH2CO}-Y[NMeA]NP[X47]L[Hyp]W[Dab][Trp(1-CH2COOH)][NMeNle][NMeNle]LCG-NH2; thioether N-14) | 12
CCCC[C@H]1C(=O)N(C)[C@@H](CCCC)C(=O)N[C@@H](CC(C)C)C(=O)N[C@H](C(=O)NCC(N)=O)CSCC(=O)N[C@@H](Cc2ccc(O)cc2)C(=O)N(C)[C@@H](C)C(=O)N[C@@H](CC(N)=O)C(=O)N2CCC[C@H]2C(=O)N[C@@H](CNC[C@H](O)[C@H](O)[C@@H](O)[C@@H](O)CO)C(=O)N[C@@H](CC(C)C)C(=O)N2C[C@H](O)C[C@H]2C(=O)N[C@@H](Cc2c[nH]c3ccccc23)C(=O)N[C@@H](CCN)C(=O)N[C@@H](Cc2cn(CC(=O)O)c3ccccc23)C(=O)N1C [Example 2027] ({CH2CO}-Y[NMeA]NP[X35]L[Hyp]W[Dab][Trp(1-CH2COOH)][NMeNle][NMeNle]LCG-NH2; thioether N-14) | 1
CCCC[C@H]1C(=O)N(C)[C@@H](CCCC)C(=O)N[C@@H](CC(C)C)C(=O)N[C@H](C(=O)NCC(N)=O)CSCC(=O)N[C@@H](Cc2ccc(O)cc2)C(=O)N(C)[C@@H](C)C(=O)N[C@@H](CC(N)=O)C(=O)N2CCC[C@H]2C(=O)N[C@@H](CNCc2ccc3c(c2)c2ccccc2n3CC)C(=O)N[C@@H](CC(C)C)C(=O)N2C[C@H](O)C[C@H]2C(=O)N[C@@H](Cc2c[nH]c3ccccc23)C(=O)N[C@@H](CCN)C(=O)N[C@@H](Cc2cn(CC(=O)O)c3ccccc23)C(=O)N1C [Example 1014] ({CH2CO}-Y[NMeA]NP[X45]L[Hyp]W[Dab][Trp(1-CH2COOH)][NMeNle][NMeNle]LCG-NH2; thioether N-14) | 4.7
CCCC[C@H]1C(=O)N(C)[C@@H](CCCC)C(=O)N[C@@H](CC(C)C)C(=O)N[C@H](C(=O)NCC(N)=O)CSCC(=O)N[C@@H](Cc2ccc(O)cc2)C(=O)N(C)[C@@H](C)C(=O)N[C@@H](CC(N)=O)C(=O)N2CCC[C@H]2C(=O)N[C@@H](CNCc2cc3c(OC)cccc3cc2OC)C(=O)N[C@@H](CC(C)C)C(=O)N2C[C@H](O)C[C@H]2C(=O)N[C@@H](Cc2c[nH]c3ccccc23)C(=O)N[C@@H](CCN)C(=O)N[C@@H](Cc2cn(CC(=O)O)c3ccccc23)C(=O)N1C [Example 1016] ({CH2CO}-Y[NMeA]NP[X36]L[Hyp]W[Dab][Trp(1-CH2COOH)][NMeNle][NMeNle]LCG-NH2; thioether N-14) | 6.4
CCCC[C@H]1C(=O)N(C)[C@@H](CCCC)C(=O)N[C@@H](CC(C)C)C(=O)N[C@H](C(=O)NCC(N)=O)CSCC(=O)N[C@@H](Cc2ccc(O)cc2)C(=O)N(C)[C@@H](C)C(=O)N[C@@H](CC(N)=O)C(=O)N2CCC[C@H]2C(=O)N[C@@H](CNCc2cccc3nccnc23)C(=O)N[C@@H](CC(C)C)C(=O)N2C[C@H](O)C[C@H]2C(=O)N[C@@H](Cc2c[nH]c3ccccc23)C(=O)N[C@@H](CCN)C(=O)N[C@@H](Cc2cn(CC(=O)O)c3ccccc23)C(=O)N1C [Example 1004] ({CH2CO}-Y[NMeA]NP[X18]L[Hyp]W[Dab][Trp(1-CH2COOH)][NMeNle][NMeNle]LCG-NH2; thioether N-14) | 4.3
